According to patent EP3875077B1, “DOSAGE FORM PROVIDING PROLONGED RELEASE OF […] SALT” (Grünenthal GmbH, priority 2020, dated 2021):
Structures can show the parent of a compound that is named as a salt. Where two headings read alike, the source gives them in different places.

Assay: thermodynamic solubility (saturation solubility) in various media, quantified by HPLC
Assay type: physicochemical
Details: for solubility thermodynamic at 24 h: thermodynamic from solid, read-out: thermodynamic solubility, assay expressed as base
Experimental: The thermodynamic solubility of Tapentadol hydrochloride and of Tapentadol dihydrogenphosphate (mixed form, batch with fine particles) was determined as saturation solubility in various media at various pH values. The solutions were stirred for 24 hours at 25 °C and the pH values of the solutions at the start and at the end of the experiments were measured. The dissolved amount of Tapentadol was quantified by HPLC (free base of Tapentadol).

Structure (SMILES): CC[C@@H](c1cccc(O)c1)[C@@H](C)CN(C)C [Tapentadol hydrochloride, (-)-(1R,2R)-3-(3-dimethylamino-1-ethyl-2-methyl-propyl)-phenol]
- thermodynamic solubility, assay expressed as base (0.1 M HCl, 24 hours at 25 °C): 31.2 g/100 mL
- thermodynamic solubility, assay expressed as base (0.15N NaOH, 24 hours at 25 °C): 6.6 g/100 mL
- solubility thermodynamic at 24 h (acetate buffer pH 4.5, aqueous buffer, acetate pH 4.5, 24 hours at 25 °C): 327 mg/mL
- solubility thermodynamic at 24 h (citrate buffer pH 6.8, aqueous buffer, citrate pH 6.8, 24 hours at 25 °C): 318 mg/mL
- solubility thermodynamic at 24 h (citrate buffer pH 7.4, aqueous buffer, citrate pH 7.4, 24 hours at 25 °C): 319 mg/mL
- solubility thermodynamic at 24 h (fassgf or other biorelevant, SIF sp pH 6.8, 24 hours at 25 °C): 324 mg/mL
- solubility thermodynamic at 24 h (water, 24 hours at 25 °C): 330 mg/mL
